Each structure is given as a SMILES string. Several values for one entry are separate records, joined by “and”; a condition that tells them apart may be missing. Equal values may be shown once. Where a name gives a salt, the structure may show the parent alone.

Data set [1] in a line: Long-term oral toxicity in mice, effect on blood cells. The format is in vivo, mouse. Particulars: ICR mice; for mortality rate / weight reduced compared with the control group: oral once a day, to the 40th day. On the procedure: Study on the long-term oral toxicity in mice was performed with compound 77 of the present invention as a representative example.
Procedure: 6-week-old ICR mice purchased from Shanghai Sippr-BK Experimental Animal Co., Ltd. were selected with half males and half females, and the animals were randomly divided with 6 mice each group. The test and control groups were orally given once a day for 40 consecutive days, respectively. The body weight and physiological and pathological features of the mice were observed and recorded every day. The drug doses of the test group were 500 mg/kg, 350 mg/kg, and 250 mg/kg of the methanesulfonate of compound 77 in 20% HP-β-CD clear aqueous solution, respectively (the formulation method was the same as that of the test example 10), and the control group was the 20% HP-β-CD aqueous solution.

For another data set, the system named is rat plasma protein. Kind of data set: Binding rate to plasma protein of rats (dialysis method). The format is in vitro ADME. The protocol:
The binding rate of compound 77 of the present invention to plasma protein at a rat plasma concentration of 2 uM was evaluated by dialysis method.
Procedure: The DMSO stock solution of compound 77 (10 mM) or the positive control propranolol (USP) was added to 500 uL of blank plasma. The final concentration of test substance in the plasma was 2 uM, and the final concentration of the positive control was 1 uM, in triplicate. 300 uL of prepared plasma samples was added to the plasma chamber, and 500 uL of dialysis buffer was added to the buffer chamber (phosphate buffer solution PBS contained 100 mM sodium phosphate and 150 mM sodium chloride, PH 7.2), sealed, and incubated for 4 h while shaking at 100 rpm, 37° C. After incubation, 50 uL sample was taken from the plasma chamber and buffer chamber, and 50 uL of PBS was added to plasma chamber samples, and 50 uL of blank plasma was added to the buffer chamber samples. Immediately, 3-fold methanol solution containing internal standard was added, to precipitate plasma protein. After centrifugation, the supernatant was taken for LC/MS/MS analysis. The plasma protein binding rate was calculated according to the following formula: % free state=(peak area ratio in the buffer chamber/the peak area ratio in the plasma chamber)×%, % binding state=100%−% free state.

Data set [2] in a line: Stability in rat hepatocytes. The format is in vitro ADME. The protocol: The stability experiment on rat hepatocytes was performed using compound 77 of the present invention as a representative example.
Procedure: The rat hepatocyte William's Medium E mixed reaction solution (2*10^6 cells/mL, 25 BD Gentest) was placed in a carbon dioxide incubator, and a certain volume of test substance or reference substance was added to the reaction system to initiate the reaction. In the final reaction system, the concentrations of the test substance or positive control testosterone were both 1 uM. Samples were taken at 0, 5, 15, 30, 45, 60, and 120 min after the reaction to a new centrifuge tube (3 portions in parallel at each time point), and 3-fold volume of ice methanol solution containing internal standard was added immediately to terminate the reactions, then after centrifugation for 5 min at 15,000 rpm to precipitate the protein, 100 μL of the supernatant was fetched to an autosampler vial for LC-MS/MS analysis (Waters Corp. ACQUITY UPLC, USA Applied Biosystems Inc. mass spectrometer API 400). The ratio of mean peak area of compound 77 to the mean peak area of internal standard at each time point was calculated, and the percentage of this ratio to that at time point 0 was calculated, and then change in this percentage was used to indicate the metabolic stability of the compound 77. […]

The target of a further data set is T1, CYP3A4-M (Homo sapiens, UniProt P08684).
T1 construct: human liver microsomes (BD Gentest) (0.5 mg/mL); tissue BD Gentest; host or cells: human liver microsomes
Kind of data set: P450 enzyme inhibition, CYP3A4-M (Midazolam). The format is in vitro ADME. To be noted: human liver microsomes. On the procedure:
Eight cytochrome p450 enzyme inhibition reactions of human liver microsomes were performed using compound 77 of the present invention as a representative example.
The main reaction systems and processes: in 37° C. water bath, the test compounds (7 concentrations, 0, 0.25, 0.5, 5, 10, 25, and 50 uM; the final methanol concentration was 1% in the system), human liver microsomes (BD Gentest) (0.5 mg/mL) and reducing coenzyme II (Roche 10621706001) (1 mg/mL) and the corresponding cytochrome p450 enzyme probe substrate were co-incubated for 5 to 20 minutes. Among them, (1) the probe substrate for CYP1A2 was Phenacetin ([…]) (Sigma), and the selective inhibitor alpha-naphthoflavone (2 uM) (Sigma) was for parallel detection as positive control, and they were incubated for 20 minutes. (2) The probe substrate for CYP2b6 was Bupropion (40 uM) (Sigma) and the selective inhibitor Ticlopidine (10 uM) (Sigma) was for parallel detection as positive control, and they were incubated for 20 minutes. (3) The probe substrate of CYP2C8 was Amodiaquine (1 uM) (Sigma), and the selective inhibitor Montelukast (10 uM) (Sigma) was for parallel detection as positive control, and they were incubated for 20 minutes. (4) The probe substrate for CYP2C9 was Diclofenac (2.5 uM) (Sigma), and the selective inhibitor Sulphaphenazole (10 uM) (Sigma) was for parallel detection as positive control, and they were incubated for 20 minutes. (5) The probe substrate for CYP2C19 was Mephenytoin (40 uM) (Sigma), and the selective inhibitor Ticlopidine (10 uM) (Sigma) was for parallel detection as positive control, and they were incubated for 20 minutes. (6) The probe substrate for CYP2D6 was Dextromethorphan (5 uM) (Sigma), and the selective inhibitor Quinidine (10 uM) (Sigma) was for parallel detection as positive control, and they were incubated for 20 minutes. (7) The probe substrates for CYP3A4-T and CYP3A4-M were Testosterone (5 uM) (Sigma) and Midazolam (5 uM) (Sigma), respectively, and the selective inhibitor was Ketoconazole (1 uM) (Sigma), they were detected in parallel as positive control, and incubated for 5 minutes. The reaction system was quenched by adding methanol containing the corresponding internal standard. The internal standard compound was Tolbutamide (Sigma). The concentration of the corresponding metabolites was determined by LC/MS/MS. For the data analysis, the decrease in peak area of the metabolite of the sample after addition of compound 77 relative to the peak area of the metabolite of the solvent control sample was used to calculate the IC50 (concentration of the test substance at 50% inhibition). The percentages of peak areas of metabolites of CYP1A2, CYP2B6, CYP2C8, CYP2C9, 15CYP2C19, CYP2D6, CYP3A4-T, and CYP3A4-M probe substrates after addition of different concentrations of compound 77 and selective inhibitors relative to the solvent control peak areas were shown in the Table 7.
For orientation: Liver microsomes are vesicles of endoplasmic reticulum, rich in cytochrome P450 enzymes.

[3] abbreviates: oral once a day for 40 days, 250-500 mg/kg.

T1 sequence (P08684 whole entry): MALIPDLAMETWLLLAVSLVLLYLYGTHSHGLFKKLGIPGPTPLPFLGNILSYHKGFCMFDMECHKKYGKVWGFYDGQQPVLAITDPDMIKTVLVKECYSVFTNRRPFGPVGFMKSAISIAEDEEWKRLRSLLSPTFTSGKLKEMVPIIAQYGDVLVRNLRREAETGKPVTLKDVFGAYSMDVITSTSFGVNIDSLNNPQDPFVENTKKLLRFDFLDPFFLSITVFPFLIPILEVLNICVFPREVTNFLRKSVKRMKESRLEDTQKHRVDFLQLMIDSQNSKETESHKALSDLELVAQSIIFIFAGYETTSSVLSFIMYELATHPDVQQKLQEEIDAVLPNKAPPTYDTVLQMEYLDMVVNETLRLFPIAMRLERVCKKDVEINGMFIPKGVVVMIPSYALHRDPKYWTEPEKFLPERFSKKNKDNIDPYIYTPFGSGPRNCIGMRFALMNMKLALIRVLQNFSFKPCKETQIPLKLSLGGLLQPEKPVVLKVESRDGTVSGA

With `COCCOc1ccc2c(c1)ncn2-c1ccc(NC(=O)Nc2cc(C(C)(C)C)n[nH]2)cc1` [Compound 77 Mesylate, 1-(5-tert-butyl-2H-pyrazol-3-yl)-3-{4-[5-(2-methoxyl-ethoxyl)-benzimidazol-1-yl]-phenyl}-urea], in data set [1] (setting [3]), the “effect on the number of other blood cells” value is recorded as “no significant effect” and the “reticulocytes decreased by” value was 10%-30%. Further, in data set [1] (250 mg/kg), the mortality rate is 0% and the “weight reduced compared with the control group” value (from here on “weight reduced”) turned out to be 8.2%. Moreover, in data set [1] (350 mg/kg), the mortality rate came to 16.7% and the “weight reduced” value is reported as 23.1%. For the same molecule, in data set [1] (500 mg/kg), the mortality rate was 66.7% and the “weight reduced” value is recorded as 34.7%.

As to `COCCOc1ccc2c(c1)ncn2-c1ccc(NC(=O)Nc2cc(C(C)(C)C)n[nH]2)cc1` [Compound 77, 1-(5-tert-butyl-2H-pyrazol-3-yl)-3-{4-[5-(2-methoxyl-ethoxyl)-benzimidazol-1-yl]-phenyl}-urea], the “Mean Binding Rate” value in the data set with rat plasma protein (Rats, concentration 2 uM) was 99.54%. The “Binding Rate” value in the data set on rat plasma protein (Rats, concentration 2 uM, single replicates) was 99.46% and 99.58% and 99.60%. In the data set on rat plasma protein (dialysis, 4 h, 37° C., test substance 2 uM, positive control 1 uM), the “binding rate to the rat plasma protein” value was determined as 99.54%. The half-life – broadly, how long it takes for the measured level to halve – at 1 uM in data set [2] is over 2 h. The “CYP3A4M Remaining %” value at CYP3A4-M (Concentration 0.25 uM) came to 105.7%; on CYP3A4-M (Concentration 0.5 uM) it was 105.7%; on CYP3A4-M (Concentration 5 uM) it was 105.0%; at CYP3A4-M (Concentration 10 uM), 97.3%; at CYP3A4-M (Concentration 25 uM), 97.2%; on CYP3A4-M (Concentration 50 uM), 84.0%. In addition, the “inhibitory effect on CYP3A4-M” value at CYP3A4-M (Concentration 50 uM) is “no significant inhibitory effect”.

The record behind these values is US10647680B2, “Urea compound, preparation method therefor and medical use thereof” (Ancureall Pharmaceutical (Shanghai) Co., Ltd., priority 2016, dated 2020).
